Measurements taken from a melting point compilation (Tetko et al.; mined from patent text by program, amines drawn as free bases though some values may be those of a salt).

melting point [°C] | SMILES
335 to 345 | O=C1NC(=O)c2c1ccc1[nH]c3ccc(O)cc3c21
186 to 193 | CC(=O)N(CCN1CCC(Nc2nc3ccccc3n2Cc2ccc(F)cc2)CC1)c1nccs1
240 | O=C(O)C(=O)Nc1c(-c2ccccc2)c(=O)[nH]c2cc(Cl)ccc12
147 to 152 | Cc1cc(CO)nc2cc3c(cc12)OC(C)(C)[C@H](O)[C@H]3NCCc1ccc(F)cc1 (relative stereo)
105 to 107 | CC(C)C(=O)C(C)(C)C1(O)C(=O)N(Cc2ccc(Cl)cc2)c2ccccc21 (stereo not drawn)
122 to 124 | CC(C)(c1ccccc1)c1cccc(S(=O)(=O)NC(CCCNC(=N)N)C(=O)O)c1 (stereo not drawn)
130 to 132 | Cc1cccc(C=NN2CCN(C(c3ccccc3)c3ccccc3)CC2)n1
110 to 112 | Nc1ccc(OCc2ccccc2)c(CCCc2ccc(NC(=O)Cc3cccnc3)cc2)c1
194 to 195 | C#CCN(C(CCn1c(=O)[nH]c2ccccc2c1=O)C(=O)O)S(=O)(=O)c1ccc(Oc2ccccc2)cc1 (stereo not drawn)
170 to 176 | C=C(c1cncn1Cc1ccccc1)C(c1cc(C)cc(C)c1)c1cc(C)cc(C)c1
136 to 139 | NCc1cccc2nnsc12
151 to 153 | C/C(=C(\C#N)C(N)=S)N1CCCN(c2ccccc2)CC1
90 to 92 | CC(C)CCCC(C)C1CCC2C3CC=C4CCCCC4(C)C3CCC12C (stereo not drawn)
68 to 69 | CCCCCCCCCCN1CCN(O)C1=O
140 to 141 | COc1cccc(CC(=O)O)c1OCCCc1cn(-c2ccc(C(F)(F)F)cn2)nc1C1CCCCC1
142 to 143 | Cc1cc2oc(C#N)cc(=O)c2c(C)c1Cl
111 | COC(=O)COc1cccc2c(CCOS(C)(=O)=O)coc12
279 to 280 | C#CCN1C(Oc2ccc(C)cc2)=NS(=O)(=O)N=C1Oc1ccc(C)cc1
128 to 130 | COc1ccc(C=Cc2ccncc2)cc1
93 to 95 | COC(=O)CCCC#Cc1cc(Cl)ccc1NS(=O)(=O)c1cccc2ccccc12
82 to 83 | CCOC(=O)/C=C/c1cnn(C)c1C
185 | N#Cc1ccc(NC2CCN(Cc3cc(F)c(F)c(F)c3)CC2)nn1
200 to 202 | O=C(Nc1ccc2nc(CN3CCN=C3Cc3ccccc3)ccc2c1)c1ccc(-c2ccc(F)cc2)cc1
157 to 158 | CCOc1ccc(C(=O)N2c3ccccc3C(N3CCCc4ccccc43)CC2C)cc1OCC (stereo not drawn)

melting point [°C] | SMILES
203 to 205 | CONC(=O)c1[nH]c(C)c(-c2nc3ccc(C(=O)c4ccccc4)cc3[nH]2)c1C
147 to 148 | O=C(O)CCc1cn(Cc2ccc(OCc3ccc4ccccc4n3)cc2)nc1-c1ccccc1
98 to 99 | CC1(C)CCC(C)(C)c2cc(CC#Cc3ccc(C(=O)N4CCOCC4)cc3)ccc21
230 to 231 | COc1cc(C=CC(=O)Nc2c(OC)nc3c(C)cc(C)cc3c2-c2ccccc2Cl)cc(OC)c1OC(C)=O
133 to 135 | O=C1OC(Cl)(c2ccc(Cl)cc2)c2ccccc21 (stereo not drawn)
74 to 76 | CCCN(CC)c1cc(C)nc(Oc2c(C)ccc(Cl)c2C)c1C
126 to 127 | CO[C@]1(c2cc(F)cc(Oc3ccc(/C(C)=N/O)cc3)c2)CCO[C@@H]1C (racemic)
73 to 74 | C=CCc1c2c(cc(OCc3ccccc3)c1C(C)(C)C)CC(C)(C)O2
61 to 68 | CC(C)C[C@H](N)C(=O)N1CCN(C(c2ccc(F)cc2)c2ccc(F)cc2)CC1
71 to 72 | COc1ccc(NC(=O)N2CCC(C)C2=O)cc1 (stereo not drawn)
235 to 237 | COc1cc(S(C)(=O)=O)ccc1-c1nc2cc3c(cc2[nH]1)NC(=O)C3(C)C
188 to 190 | CC(=O)Nc1c(CC(=O)O)cccc1C(=O)c1ccccc1
80 to 81 | Cc1c(CO)ncc(Br)c1N1CCCCC1
292 to 295 | Cn1cc(C(=O)O)c(=O)c2c3cc(N4CCCC(C)(C)C4)c(F)cc3ncc21
312 | O=C(O)c1ccc2c(c1)S(=O)(=O)c1ccccc1-2
90 | Cn1c(SCCCN2CCc3ccc(NS(C)(=O)=O)cc3C2)nnc1-c1ccccc1
129 to 130 | COc1ccc2c(C(=O)C=[N+]=[N-])nn(Cc3ccc(Cl)c(Cl)c3)c(=O)c2c1
190 to 191 | CCCCc1nc2c(N)nc3cccnc3c2n1CCCCN1CC=Cc2cc(C(N)=O)ccc21
196 to 198 | CCSc1ccc(CC(=O)NC(NC(Cc2ccccc2C)=NC#N)C(C)(C)C)cc1 (stereo not drawn)
193 to 195 | COc1ccnc(CCc2nc3cc(-c4ccc(S(=O)(=O)N5CCN(C)CC5)cc4)cnc3[nH]2)c1
232 to 234 | OCc1ccc2c(ccn2-c2ccnc(N[C@H]3CC[C@H](O)CC3)n2)c1
198 | CCCOc1ccc(S(=O)(=O)N2CCN(C)CC2)cc1-c1cc2c([nH]1)c(=O)n(C)c(=O)n2CCC
156 to 158 | COCCc1nc2c(N)nc3ccccc3c2n1CCCCN1CCCS1(=O)=O
256 | Cc1nc(-c2ccc(C(=O)N[C@H]3CC[C@H](CCN4CCC(c5cccc6c5CCO6)CC4)CC3)cc2)no1

melting point [°C] | SMILES
81 to 82.3 | CCn1c(C)nc(OCc2ccc(OCc3ccc(F)cc3)cc2)c(C)c1=O
178 to 179 | N#CCCc1ccnc(-c2nc(=O)c3ccccc3s2)c1
128 to 130 | CCCCCc1nc(O)c(-c2ccccc2)s1
137 to 139 | Cc1ccc(S(=O)(=O)OCCC(=C(c2ccccc2)c2ccccc2)c2ccccc2)cc1
151 to 154 | NC(=O)C1CCc2ccccc21 (stereo not drawn)
200 to 204 | Cc1ccc(C2(n3ccnc3)c3ccccc3C(=O)c3ccccc32)cc1
224 to 225 | NC(N)=NC(=O)Cn1c(Cl)ccc1Cl
46 to 48 | CC(C)c1ccc2cc(OCCF)ccc2c1
112 | COc1ccc(Cn2c(=O)n(C3CCCCC3)c3cc(Cl)ccc32)c(OC)c1
117 to 119 | O=C(NC1CCN(CCCc2ccc(Cl)cc2)C1)C12CC3CC(CC(C3)C1)C2 (stereo not drawn)
94 to 97 | O=C1CCc2c1cccc2[N+](=O)[O-]
209 to 210 | CCc1nc2c(N)nc(C)c(C)c2n1CCCC(=O)N1CCOCC1
148 to 150 | CS(=O)(=O)N1CCC(C(=O)N(CCCN2CCC(Cc3ccc(F)cc3)CC2)c2ccc(Cl)c(Cl)c2)CC1
156 to 157 | O=C(O)CCCc1ncccc1NS(=O)(=O)c1ccccc1
111 to 112 | CCCCOc1c(CO)n(CC2CC2)c(=O)c2ccc(Br)cc12
145 to 148 | COc1ccc(C=CCCCCOc2ccc(S(=O)(=O)c3cccc(C(=O)O)c3)cc2CCC(=O)O)cc1
167 to 169 | CCNc1nc(-c2ccccc2)c(-c2ccc(=O)n(C(C)C)n2)s1
174 to 176 | Cn1c2c(ccc1=O)C(=O)CCC2
108 to 110 | CCNC(=S)Nc1cccc(C(=O)OCC)c1NCc1ccc(-c2ccccc2C#N)cc1
253 to 255 | O=C(O)COc1c[nH]cc(Cl)c1=O
165 to 168 | O=C1C(=O)N(C(c2ccccc2)(c2ccccc2)c2ccccc2)CCN1Cc1cc(=O)c(OCc2ccccc2)cn1Cc1ccccc1
90 to 92 | Cc1cc2c(cc1CSCC(=O)O)OCO2
119 to 120 | CCCCOc1nc(N)c2nc(OC)n(CCNc3cccc(CC(=O)OC)c3)c2n1
50 to 55 | COC(=O)c1cc(CCc2cc(OC)ccc2OC)ccc1N

melting point [°C] | SMILES
197 to 202 | COc1ccc(C(=O)N2CCN(c3ccc([N+](=O)[O-])c(C=CC(=O)O)c3)CC2)cc1OC
110 | CCCCOc1cccc(Cn2[nH]c(N)cc2=O)c1
146 | N#CCC(=O)NCCCNC(=O)CC#N
130 to 146 | COC(=O)C1(C)CN(C(=O)Nc2ccc(Cl)cn2)N=C1c1ccc(Cl)cc1 (stereo not drawn)
106 to 110 | CCCCc1oc2ccccc2c1C(=O)O
138 to 142 | CCOC(=O)NN(C(=O)NC)S(=O)(=O)c1ccccc1
160 to 162 | NCCCCNc1ncc2ncnc(Nc3ccc(F)c(Cl)c3)c2n1
195 to 197 | NC(=O)C(Br)c1c(Cl)cc([N+](=O)[O-])cc1Cl (stereo not drawn)
106 to 109 | CCCCCCN(Cc1ccc2ccccc2n1)C(Nc1ccc(OC)cc1OC)=C1C(=O)OC(C)(C)OC1=O
218 to 220 | COCCOc1cc2ncnc(NC3=CC(=O)C(OCc4ccccc4)=CC3=O)c2cc1OC
174 | COc1ccc2c(c1)OC(C)(C)C(NC(=O)c1cc(Cl)ccc1OC)C2=O (stereo not drawn)
183 to 185 | CCOCc1nc2c(N)nc3ccccc3c2n1CC(C)(C)OCCS(C)(=O)=O
258 to 260 | COc1cccc(CNC(=O)c2nc3ccc(-c4nnn[nH]4)cc3c(=O)[nH]2)c1
128 to 130 | CCc1cc2c(ccc(=O)n2Cc2ccc(C(=O)OC)cc2)c(CC)n1
108 to 111 | CC(C)(C)N1CC2(CCNCC2)OC1=O
49 to 51 | COC(=O)C(=O)c1ccc(OCCSc2ccccc2)cc1
131 | COc1ccc(C2=NOC(C)(/C(N)=C/OC(C)=O)C2)cc1OC1CCCC1 (stereo not drawn)
188 to 191 | CC1=NN=C(C=Cc2ccc(C(F)(F)F)cc2)c2cc3c(cc2C1)OCO3
137 to 139 | CNCC1(c2cccc(C(F)(F)F)c2)CCN(C(=O)CN2CCN(c3cnccn3)CC2)CC1
> 300 | CC(=O)NC1(c2ccccc2)C2=NCC(C)(C)CN2c2ccccc21 (stereo not drawn)
156 to 157 | CCOC(=O)c1cn2c(nc1=O)CCCCC2
165 | CCN(Cc1ccccc1OCc1ccccc1)c1ccc(C(=O)O)cc1
183 to 184 | CCCn1cc(-c2c(-c3ccc(F)cc3)nn3ccncc23)ccc1=O
121 to 122 | CS(=O)(=O)OCCC1(CCOS(C)(=O)=O)c2ccccc2Oc2ccccc21

SMILES | melting point [°C]
O=C(O)c1cccc(CN2CCC(c3cn(Cc4ccco4)c4ccccc34)CC2)c1 | 154 to 155
CC1=NCC2CN=C(c3ccccc3F)c3cc(Cl)ccc3N12 (stereo not drawn) | 142 to 144
